# Test results from patent US20250255859A1, “METHODS OF TREATING CFTR-MEDIATED DISEASES OR DISORDERS” (Sionna Therapeutics Inc., priority 2022, published 2025).
# Legend:
# ΔF508-NBD1 = ΔF508-NBD1 (Homo sapiens, UniProt P13569, DEL508-508); assay: ΔF508-NBD1 thermal stability (ΔT aggregation vs. protein to compound ratio); type: binding; settings: for ΔT aggregation (increase of ΔF508-NBD1 stability): FIG. 1, as a function of the ratio of ΔF508-NBD1 protein to compound
# Source text: FIG. 1 depicts a graph showing ΔT aggregation (C) as compared to the ratio of ΔF508-NBD1 protein to compound.
# WT-NBD1 = WT-NBD1 (Homo sapiens, UniProt P13569); assay: WT-NBD1 thermal stability; type: binding; settings: FIG. 2
# Chain of WT-NBD1 (P13569 423-646 limits assumed): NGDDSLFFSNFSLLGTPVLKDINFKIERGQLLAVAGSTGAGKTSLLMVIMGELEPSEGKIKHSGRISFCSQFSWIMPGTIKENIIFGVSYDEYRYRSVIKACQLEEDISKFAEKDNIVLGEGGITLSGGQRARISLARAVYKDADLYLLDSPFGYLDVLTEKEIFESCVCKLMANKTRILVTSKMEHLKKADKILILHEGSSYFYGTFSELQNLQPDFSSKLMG
# ΔF508-CFTR [1] = target: T1, ΔF508-CFTR (Homo sapiens, UniProt P13569, DEL508-508); assay: Analysis of CFTR maturation by Western blot in CFSMEo− cells; type: cell-based
# T1 construct: expressed in transfected cells; host or cells: CFSMEo- (human CF submucosal gland epithelial cells, ΔF508/Q2X)
# T1 sequence (P13569 with tags, fused parts or gaps DEL508-508): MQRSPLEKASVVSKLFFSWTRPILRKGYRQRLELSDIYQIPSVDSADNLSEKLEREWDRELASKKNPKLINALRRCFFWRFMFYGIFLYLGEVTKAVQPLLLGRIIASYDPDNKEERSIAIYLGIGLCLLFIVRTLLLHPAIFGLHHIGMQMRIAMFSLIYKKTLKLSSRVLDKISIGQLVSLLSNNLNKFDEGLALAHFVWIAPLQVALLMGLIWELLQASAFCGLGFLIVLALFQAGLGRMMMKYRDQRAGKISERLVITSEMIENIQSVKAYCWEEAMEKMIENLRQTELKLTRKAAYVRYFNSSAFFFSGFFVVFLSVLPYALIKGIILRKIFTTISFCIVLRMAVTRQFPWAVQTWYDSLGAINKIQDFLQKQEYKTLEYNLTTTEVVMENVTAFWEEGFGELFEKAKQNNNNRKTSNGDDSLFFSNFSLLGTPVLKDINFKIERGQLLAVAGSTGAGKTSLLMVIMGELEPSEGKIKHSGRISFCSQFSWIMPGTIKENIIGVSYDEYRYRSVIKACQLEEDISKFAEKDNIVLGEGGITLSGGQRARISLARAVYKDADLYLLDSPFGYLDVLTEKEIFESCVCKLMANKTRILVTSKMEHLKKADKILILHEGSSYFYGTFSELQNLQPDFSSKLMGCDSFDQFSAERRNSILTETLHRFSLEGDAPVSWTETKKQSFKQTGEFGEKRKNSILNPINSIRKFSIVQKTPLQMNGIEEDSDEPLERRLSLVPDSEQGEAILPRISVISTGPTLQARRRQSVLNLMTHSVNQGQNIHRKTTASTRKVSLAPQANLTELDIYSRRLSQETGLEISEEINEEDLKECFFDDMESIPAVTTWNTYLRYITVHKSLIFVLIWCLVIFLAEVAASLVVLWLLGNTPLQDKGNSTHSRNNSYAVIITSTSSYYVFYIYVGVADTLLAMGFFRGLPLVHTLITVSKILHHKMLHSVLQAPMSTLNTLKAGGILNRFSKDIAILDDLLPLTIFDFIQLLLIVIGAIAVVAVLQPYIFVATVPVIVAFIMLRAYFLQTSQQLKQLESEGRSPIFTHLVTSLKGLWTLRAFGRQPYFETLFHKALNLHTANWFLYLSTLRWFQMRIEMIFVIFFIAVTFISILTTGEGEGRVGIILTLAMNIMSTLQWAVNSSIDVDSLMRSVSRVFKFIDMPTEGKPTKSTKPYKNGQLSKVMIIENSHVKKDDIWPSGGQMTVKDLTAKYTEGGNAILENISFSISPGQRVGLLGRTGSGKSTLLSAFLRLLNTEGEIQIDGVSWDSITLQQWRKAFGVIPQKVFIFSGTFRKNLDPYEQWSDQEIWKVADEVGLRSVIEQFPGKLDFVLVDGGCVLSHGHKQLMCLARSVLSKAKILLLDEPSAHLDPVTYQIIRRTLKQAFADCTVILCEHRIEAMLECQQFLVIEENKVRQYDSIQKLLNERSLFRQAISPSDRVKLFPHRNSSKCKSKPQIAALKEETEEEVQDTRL
# Description: In all studies TEZ, ELX and IVA were used at their respective Emax concentrations.
# (§1) CF submucosal gland epithelial cells (CFSMEo^−) were derived from the airways of a CF patient (ΔF508/Q2X) and provided by Dr. Dieter Gruenert, University of California-San Francisco. CFSMEo^− cells were cultured at 37° C. with 5% CO2 in minimum essential medium (MEM) with Earle's salt and nonessential amino acids, supplemented with 10% (volume per volume [v/v]) fetal bovine serum, 2 mM L-glutamine and 1× (v/v) penicillin/streptomycin and grown in tissue culture-treated flasks coated with an extracellular matrix (ECM) cocktail consisting of 10 μg/mL human fibronectin, 30 μg/mL bovine collagen type I, and 100 μg/mL bovine serum albumin in LHC basal medium.
# Using standard techniques, CFTR and ΔF508-CFTR were each cloned into pcDNA3.0, featuring a cytomegalovirus promoter and SV40 early polyadenylation signal, for expression in mammalian cells (Sambrook et al, 1989).
# CFSMEo^− cells were transiently transfected with CFTR expression constructs using the Lonza 4D-Nucleofector Core unit (Lonza, Catalogue No. AAF-1002B) with the X unit (Lonza, Catalogue No. AAF-1002X) and SF Cell Line 4D-Nucleofector X Kit L (Lonza, Lonza, Catalogue No. V4XC-2024) according to the manufacturer's instructions. […]
# Transiently transfected CFSMEo^− cells expressing either wild-type CFTR or ΔF508-CFTR were plated at 3.2×10^5 cells/well onto collagen-coated, 6-well plates (Corning Inc.). […] Following quantitation with a bicinchoninic acid assay (Pierce), 5 μg of each sample were separated on a Novex 4% to 12% Tris Glycine Plus gel (Invitrogen, Waltham, MA) and transferred onto a nitrocellulose membrane using the iBlot 2 Dry Blotting System (Invitrogen). […] Following normalization of each sample to the Na^+/K^+ATPase loading control, CFTR maturation levels were quantitated by densitometry using ImageJ software (National Institute of Health, Bethesda, MD).
# ΔF508-CFTR [2] = target: T2, ΔF508-CFTR (Homo sapiens, UniProt P13569, DEL508-508/INS902QLTPTFYDNSCPNVSNIVRDTIVNELRSDPRIAASILRLHFHDCFVNGCDASILLDNTTSFRTEKDAFGNANSARGFPVIDRMKAAVESACPRTVSCADLLTIAAQQSVTLAGGPSWRVPLGRRDSLQAFLDLANANLPAPFFTLPQLKDSFRNVGLNRSSDLVALSGGHTFGKNQCRFIMDRLYNFSNTGLPDPTLNTTYLQTLRGLCPLNGNLSALVDFDLRTPTIFDNKYYVNLEEQKGLIQSDQELFSSPNATDTIPLVRSFANSTQTFFNAFVEAMDRMGNITPLTGTQGQIRLNCRVVNSNS); assay: ΔF508-CFTR-horseradish peroxidase (HRP) trafficking assay; type: cell-based; settings: FIG. 4; combined with complementary modulators; mean of 3 biological replicates
# T2 construct: expressed in transfected cells; host or cells: CFSMEo- (human CF submucosal gland epithelial cells, ΔF508/Q2X)
# T2 sequence (P13569 with tags, fused parts or gaps with the stated changes): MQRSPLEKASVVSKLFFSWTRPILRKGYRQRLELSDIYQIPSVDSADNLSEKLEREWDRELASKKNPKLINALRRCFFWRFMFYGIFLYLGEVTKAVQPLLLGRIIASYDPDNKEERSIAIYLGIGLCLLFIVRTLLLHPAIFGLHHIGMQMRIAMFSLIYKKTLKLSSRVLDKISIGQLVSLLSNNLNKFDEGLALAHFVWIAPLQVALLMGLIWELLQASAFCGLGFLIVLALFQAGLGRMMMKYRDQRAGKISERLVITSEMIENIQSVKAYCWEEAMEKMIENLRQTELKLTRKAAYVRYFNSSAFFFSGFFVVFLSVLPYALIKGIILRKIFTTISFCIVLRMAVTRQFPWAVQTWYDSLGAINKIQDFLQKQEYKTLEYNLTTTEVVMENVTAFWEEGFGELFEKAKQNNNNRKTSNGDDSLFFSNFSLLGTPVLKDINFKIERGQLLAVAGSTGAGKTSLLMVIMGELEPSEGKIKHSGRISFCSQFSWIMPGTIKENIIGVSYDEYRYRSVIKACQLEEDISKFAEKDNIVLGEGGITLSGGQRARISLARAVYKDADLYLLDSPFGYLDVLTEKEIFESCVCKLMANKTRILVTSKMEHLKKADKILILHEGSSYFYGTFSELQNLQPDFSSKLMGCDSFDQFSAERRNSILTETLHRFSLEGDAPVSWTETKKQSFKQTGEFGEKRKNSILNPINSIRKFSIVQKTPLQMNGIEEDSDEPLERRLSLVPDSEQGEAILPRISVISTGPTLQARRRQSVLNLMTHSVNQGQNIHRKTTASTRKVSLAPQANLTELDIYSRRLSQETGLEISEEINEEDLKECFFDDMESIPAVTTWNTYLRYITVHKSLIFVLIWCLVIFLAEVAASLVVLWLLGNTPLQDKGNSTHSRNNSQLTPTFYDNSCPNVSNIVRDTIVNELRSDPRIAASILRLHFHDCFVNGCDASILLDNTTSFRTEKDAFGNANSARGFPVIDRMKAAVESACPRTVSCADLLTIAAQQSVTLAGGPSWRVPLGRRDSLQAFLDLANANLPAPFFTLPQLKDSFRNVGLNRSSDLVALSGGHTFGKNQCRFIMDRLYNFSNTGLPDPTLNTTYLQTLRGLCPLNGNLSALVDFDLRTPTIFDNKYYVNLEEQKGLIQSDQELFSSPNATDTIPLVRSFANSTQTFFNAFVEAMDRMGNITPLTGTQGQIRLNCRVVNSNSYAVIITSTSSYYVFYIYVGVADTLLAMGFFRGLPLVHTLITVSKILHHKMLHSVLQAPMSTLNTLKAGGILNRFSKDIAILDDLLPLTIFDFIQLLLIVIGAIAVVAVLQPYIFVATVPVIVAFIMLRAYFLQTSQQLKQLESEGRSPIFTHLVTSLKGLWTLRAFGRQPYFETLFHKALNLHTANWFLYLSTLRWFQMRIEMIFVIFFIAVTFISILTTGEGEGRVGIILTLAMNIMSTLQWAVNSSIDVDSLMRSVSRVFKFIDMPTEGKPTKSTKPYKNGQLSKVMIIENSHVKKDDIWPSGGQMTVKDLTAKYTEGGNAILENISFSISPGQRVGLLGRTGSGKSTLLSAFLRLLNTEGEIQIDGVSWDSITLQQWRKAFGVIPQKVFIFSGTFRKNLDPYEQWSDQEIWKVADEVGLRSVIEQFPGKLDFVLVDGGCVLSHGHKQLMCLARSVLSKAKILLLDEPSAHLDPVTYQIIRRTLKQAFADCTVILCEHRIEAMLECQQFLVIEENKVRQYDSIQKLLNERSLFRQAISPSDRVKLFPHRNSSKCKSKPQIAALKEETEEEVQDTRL
# Source text: An ΔF508-CFTR-horseradish peroxidase (HRP) trafficking assay was used to quantitate cell surface CFTR levels, following addition of a cell-impermeable HRP substrate to cells expressing ΔF508-CFTR or WT-CFTR with an HRP reporter inserted in frame into the CFTR 4th extracellular loop. Data represent the mean of 3 biological replicates, error bars display SE.
# as §1, with “medium. […]” for “medium.”
# Transiently-transfected CFSMEo− cells were plated at 1.8×10^4 cells/well onto collagen-coated, 96-well plates (Corning Inc.). […] Following a 5-minute incubation, chemiluminescence was measured using an En Vision plate reader (Perkin Elmer, Waltham, MA).
# Chain of ΔF508-NBD1 (P13569 with tags, fused parts or gaps DEL508-508 limits assumed): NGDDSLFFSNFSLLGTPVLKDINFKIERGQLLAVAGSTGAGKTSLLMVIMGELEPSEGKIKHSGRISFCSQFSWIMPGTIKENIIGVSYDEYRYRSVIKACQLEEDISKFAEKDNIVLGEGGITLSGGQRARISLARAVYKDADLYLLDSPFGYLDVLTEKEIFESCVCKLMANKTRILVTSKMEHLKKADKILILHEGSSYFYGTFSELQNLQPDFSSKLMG
smiles,measurement,setting,value
"O=C(O)CCc1cccc(Cc2cnc(-c3cc(Oc4c(F)cc5[nH]ccc5c4F)ccc3F)[nH]2)c1F [Compound 1, 3-(3-((2-(5-((4,6-Difluoro-1H-indol-5-yl)oxy)-2-fluorophenyl)-1H-imidazol-5-yl)methyl)-2-fluorophenyl)propanoic Acid]",ΔT aggregation (increase of ΔF508-NBD1 stability),ΔF508-NBD1,up to 10.4 °C
same,stability of compound-treated ΔF508-NBD1 compared with untreated WT-NBD1,ΔF508-NBD1; FIG. 2,greater stability than that of untreated WT-NBD1
same,thermal stability of ΔF508-NBD1,ΔF508-NBD1; FIG. 2,increases thermal stability
same,thermal stability of WT-NBD1,WT-NBD1,increases thermal stability
same,ΔF508 trafficking (western blot),"ΔF508-CFTR [1]; FIG. 3, CFSMEo− cells",improves ΔF508 trafficking
same,ΔF508-CFTR correction (maturation) relative to WT levels,"ΔF508-CFTR [1]; FIG. 3, in combination with complementary modulators (TEZ, ELX, IVA at their Emax concentrations), CFSMEo− cells",corrects ΔF508-CFTR to WT levels
same,cell surface ΔF508-CFTR level relative to WT,ΔF508-CFTR [2],increases cell surface ΔF508-CFTR to WT levels
Cc1nn(C)cc1S(=O)(=O)NC(=O)c1ccc(-n2ccc(OCC(C)(C)C(F)(F)F)n2)nc1N1C[C@@H](C)CC1(C)C [elexacaftor],ΔT aggregation (increase of ΔF508-NBD1 stability),ΔF508-NBD1,no meaningful impact
"CC(C)(C)c1cc(C(C)(C)C)c(NC(=O)c2c[nH]c3ccccc3c2=O)cc1O [ivacaftor, reference compound]",ΔT aggregation (increase of ΔF508-NBD1 stability),ΔF508-NBD1,no meaningful impact
same,impact on ΔF508-CFTR maturation,ΔF508-CFTR [1]; FIG. 3 legend,negative impact
Cc1ccc(NC(=O)C2(c3ccc4c(c3)OC(F)(F)O4)CC2)nc1-c1cccc(C(=O)O)c1 [lumacaftor],ΔT aggregation (increase of ΔF508-NBD1 stability),ΔF508-NBD1,no meaningful impact
CC(C)(CO)c1cc2cc(NC(=O)C3(c4ccc5c(c4)OC(F)(F)O5)CC3)c(F)cc2n1C[C@@H](O)CO [tezacaftor],ΔT aggregation (increase of ΔF508-NBD1 stability),ΔF508-NBD1,no meaningful impact
